These results are taken from a melting point compilation (Tetko et al.; mined from patent text by program, amines drawn as free bases though some values may be those of a salt).

Usually melting point stands for the temperature of the solid-liquid transition.

Where only a bound is given, the exact number is not on record here.

Compound `O=C(CN1C(=O)c2ccccc2C1=O)NNC(=O)c1ncn2c1[C@@H]1CCN1C(=O)c1sccc1-2` showed a melting point of more than 260 °C.
Then `Cc1noc([C@@H](Cc2ccccc2)NC(=O)[C@@H](Cc2ccc3ccccc3c2)NC(=O)OC(C)(C)C)n1`, with 148 to 150 °C; and `c1cc(-c2cnc(-c3cccc(-c4cnco4)n3)o2)cc(-c2cnc(-c3cccc(-c4cnco4)n3)o2)c1`, with more than 250 °C; and `CCCNC(=O)C(C)Cc1ccc2c(c1)c(Cc1ccc(C(=O)NS(=O)(=O)c3ccccc3C)cc1OC)cn2C` (stereo not drawn), with 103 to 117 °C.
Then `O=C(Nc1ccc2ccccc2n1)c1ccc(COc2ccc3c(c2)CCC(CCN2CCCCC2)C3)cc1` (stereo not drawn), with 135 to 138 °C; and `O=C(NC(=O)c1cccs1)c1cncc([N+](=O)[O-])c1`, with 187 °C; and `O=C(O)c1cc(-c2ccccc2)cc2c(-c3ccccc3)c(Br)oc12`, with 232 to 236 °C.
To `COc1ccccc1N1CCN(CCn2nc(-c3c(-c4ccccc4)nn4ccccc34)ccc2=O)CC1` belongs 120 to 125 °C; to `CC1(CCC#N)CCC2OCCOC2CC1=O` (stereo not drawn), 58 to 60 °C; to `CCn1nc(-c2ccccc2)c(C(C)=O)c(Nc2ccc(O)c3ncccc23)c1=O`, 262 to 263 °C.
As for `NCCCNc1n[nH]c(=O)c2ccccc12`, the melting point fell in the range of 147 to 148 °C.
Then `Cc1ccc(C)c2c1CN(NC(=O)OC(C)(C)C)C2`, with 148 to 151 °C; and `Nc1ccn(C2CC(N)C(CO)O2)c(=O)n1` (stereo not drawn), with 207 °C.
To `CC(C)(C)C(=O)c1c[nH]c2ncc(-n3ccnc3)nc12` belongs 215 to 217 °C.
Then `CCCCS(=O)(=O)NC(Cc1ccc(N2CCN(CCC3CCN(C(=O)OC(C)(C)C)CC3)C2=O)cc1)C(=O)OC` (stereo not drawn), with 124 to 126 °C; and `O=c1cc(Cl)c2cc(OC(F)(F)F)ccc2o1`, with 85 to 87 °C.
For `CCOc1nn(Cc2ccc(OCc3csc(-c4ccccc4)n3)nc2)cc1CCC(=O)O`, the melting point lay within 121 to 122 °C.
To `Cc1ccc(S(=O)(=O)N2CCCC2c2cccc(Cl)c2)cc1` (racemic) belongs 107 °C; to `Cn1c(Cl)c([N+](=O)[O-])c(=O)n(C)c1=O`, 91 to 92 °C.
To `O=C1NC(=O)c2c1c(-c1ccccc1Cl)cc1c2c2cc(O)ccc2n1CCCc1nnn[nH]1` belongs 269 to 272 °C.
On to `NNC(=O)c1sc2cnccc2c1Oc1ccc(C(F)(F)F)cc1`, for which the melting point is 146 to 147 °C.
With `Cc1oc(-c2ccccc2)nc1COc1ccc2oc(CCCc3nnn[nH]3)cc2c1`, the melting point is 136 to 137 °C.
To `Cc1[nH]c(=S)n(Nc2ccc(F)cc2)c1-c1ccccc1` belongs 228 °C; to `Cc1c(-c2ccccc2)oc2c(CNCCO)cccc2c1=O`, 117 °C.
`CCCCCCCCCCCC(=O)CC(=O)OC` gave a melting point of 29 °C.
In turn, `COc1ccc(N2CCN(c3c(C)c(C)c4c(c3C)C(c3ccc(-c5ccccc5)cc3)C(C)(C)O4)CC2)cc1` (stereo not drawn) yielded a melting point of 147 to 148 °C.
Then `O=[N+]([O-])c1ccc2c(ccn2Cc2ccccc2)c1`, with 102 to 104 °C; and `CCS(=O)(=O)c1ccc(-c2coc3ccc(-c4nnc(C)o4)cc23)c(Cl)c1`, with 180 to 181 °C.
Then `CSc1sccc1C#N`, with 112 to 115 °C; and `COC(=O)CCCSC(=S)NCc1ccc(Cl)cc1`, with 60 to 62 °C; and `Nc1c(S)ccc2ccccc12`, with 36 to 37 °C.
Then `O=C(O)CCOc1cccc2c1CCc1sc(SCC(c3ccccc3)c3ccccc3)nc1-2`, with 123 to 125 °C; and `O=C(O)c1cc(C(c2cc(F)ccc2F)S(=O)(=O)c2ccc(Cl)cc2)c(Cl)cn1` (stereo not drawn), with 94 to 96 °C.
Turning to `COc1c(F)cc2c(c1F)CC(n1cc[nH]c1=S)CC2` (stereo not drawn), the melting point was 228 to 230 °C.
`COC(=O)[C@]1(O)Cc2c(OC)ccc(OC)c2C2(C1)SCCS2`: the melting point lay in the range of 115 to 117 °C.
To `CN(C)CCc1[nH]c2ccccc2c1CSC(=S)N(C)C` belongs 125 to 128 °C; to `COC(=O)CS(=O)(=O)Nc1nc(-c2ncccc2C)cc2cccnc12`, 147 to 148 °C; to `COc1ccc(-c2c(Br)c(CN3C(=O)CCC3=O)nc3sc4c(c23)CCN(Cc2ccccc2)C4)cc1`, 255 to 256 °C.
Compound `CC(C)CC(C=O)NC(=O)C(Cc1c[nH]cn1)NC(=O)C1Cc2c([nH]c3ccccc23)CN1C(=O)OCc1ccccc1` (stereo not drawn) gave a melting point of 126 to 130 °C.
Regarding `COC(=O)[C@H](CCSC)NC(=O)c1ccc(/C=C(/Cn2ccnc2)c2ccc(F)cc2)cc1`, the melting point was in the range of 54 to 57 °C.
Turning to `COC(=O)[C@H](CSSC[C@H](NC(=O)[C@@H]1CCC(=O)N1)C(=O)OC)NC(=O)[C@@H]1CCC(=O)N1`, the melting point was 160 to 162 °C.
In the case of `ON=C1CCCCC12OCCO2`, the melting point was 97 to 98 °C.
To `Cc1cc(OCc2cnc(-c3cccc(C(F)(F)F)c3)nc2C2CC2)ccc1OC(C)(C)C(=O)O` belongs 175 to 176 °C.
To `O=S1NC(Cc2cc3ccccc3s2)=NO1` (stereo not drawn) belongs 127 to 129 °C.
Compound `C=CC1=C(C(=O)O)C(C(F)(F)F)Oc2ccc(Cl)cc21` (stereo not drawn) showed a melting point of 143 to 145 °C.
Then `CON=C(C#CCN1CCOCC1)C(=O)OC`, with 43 to 45 °C; and `COC(=O)c1ncsc1S`, with 100 °C.
`CC(C)(COc1ccc2ncnn2n1)CS(N)(=O)=O` had a melting point of 181 to 184 °C.
Then `CCCc1c(OCCCSCCC(=O)O)ccc(C(C)=O)c1O`, with 90 to 92 °C; and `O[C@H](c1ccc(F)cc1)[C@H](Cc1ccc(C(F)(F)F)cc1)NCc1cccc2ccccc12` (racemic), with 94 to 95 °C.
Regarding `CCCCCCC(C(=O)OCC)n1cnc2c([N+](=O)[O-])cccc21` (stereo not drawn), the melting point was in the range of 86 to 89 °C.
To `CC(=O)C1CCC2C3CCC4CC(O)C(N5CCOC(C)(C)C5)CC4(C)C3CCC12C` (stereo not drawn) belongs 174 to 176 °C; to `CCNC(=O)[C@@H]1C[C@H](SCc2ccc(OC)cc2)CN1CC`, 60 to 61 °C.
Then `O=C(NC(Cc1ccccc1)C(=O)O)OCc1ccc(C#Cc2ccccc2)cc1` (stereo not drawn), with 172 to 173 °C; and `O=C1CCCC12CCOc1ccc(F)cc12` (stereo not drawn), with 49 to 51 °C.
To `CC(C)Cc1nc2ccc(Cl)cc2c(-c2ccccc2)c1CO` belongs 130 to 131 °C; to `COc1cc(C(=O)C(=O)O)cc([N+](=O)[O-])c1O`, 165 to 167 °C; to `CCOC(=O)c1cn(-c2nc(NC(C)(C)C)c(F)cc2F)c2c(Cl)c(F)c(F)cc2c1=O`, 203 to 205 °C.
`C[Si](C)(C)c1ccc(F)c([Si](C)(C)C)c1C(=O)N1CCCC1` came in with a melting point of 97 to 100 °C.
In turn, `COc1cc(OC)cc(N2CCN(C(=S)Nc3nc(C)c(C)nc3OC)CC2)c1` registered a melting point of 71 to 73 °C.
To `CC1(C)C2CC[C@@]1(N1CCCCC1)[C@H](O)C2` belongs 88.5 to 89.5 °C; to `CC(=O)N(C)C1=C(C#N)CC(N)(C(=O)CCCl)C=C1` (stereo not drawn), 174 to 175 °C; to `CC1(c2ccc(-c3ccccc3)cc2)OC(=O)C(OCc2ccccc2)=C1O` (stereo not drawn), 182 to 183 °C.
On to `O=C(CCCN1C(=O)c2ccccc2C1=O)Nc1nnc(SCc2ccccc2)s1`, for which the melting point was in the range of 128 to 131 °C.
Consider `N#Cc1c[nH]c2cccc(OCc3ccccc3)c12`, for which the melting point lay in the range of 139 to 141 °C.
Then `CCOC(=O)N=c1ccc(C)cn1Cc1cccc(C(F)(F)F)c1`, with 121 °C.
Turning to `OCc1cc2cc(OCc3ccccc3)c(F)cc2nc1I`, the melting point turned out to be 188 °C.
`COc1c(OC)c(OC)c2c(=O)cc(-c3ccc(OCc4ccccc4)cc3)oc2c1OC` came in with a melting point of 132 to 134 °C.
In turn, `CC(=O)OCc1ccc(C=O)cc1` yielded a melting point of 32 °C.
To `CC(=O)NNC(=O)c1ccccc1` belongs 172 to 174 °C; to `COc1cccc([C@H]2O[C@H](CC(=O)O)C(=O)N(CC(C)(C)CO)c3ccc(Cl)cc32)c1OC`, 199 to 202 °C.
Turning to `Cc1nc2ccc3c(c2o1)OC(CN1CCC(O)(c2cccc(C(F)(F)F)c2)CC1)CO3` (stereo not drawn), the melting point lay in the range of 148 to 151 °C.
Then `CCOC(=O)c1cnn2c(-c3cccc(N(CC)C(=O)OC)c3)ccnc12`, with 117 °C; and `CCCCCCCCCOc1cc(C(N)=O)ccn1`, with 108 to 110 °C.
On to `CCC1c2cccn2-c2ccc(Cl)cc2N1C(=O)c1ccc(O)cc1O` (stereo not drawn), for which the melting point was 198 to 201 °C.
For `CC(COc1ccc(O)c(C(N)=O)c1)NCC(O)c1ccccc1` (stereo not drawn), the melting point lay in the range of 152 to 154 °C.
To `Cc1c(C(N)=O)c(C(F)(F)F)nn1-c1c(Cl)cc(C(F)(F)F)cc1Cl` belongs 165 to 170 °C; to `Cc1cc(C)c(C(O)P(=O)(c2ccccc2)c2ccccc2)c(C)c1` (stereo not drawn), 152 to 153 °C; to `O=C(O)c1cccc(-c2nc(-c3cc(Cl)sc3Cl)cs2)c1`, 241 to 242 °C.
Then `CON=C(C(=O)O)c1csc(=N)n1O`, with 209 to 210 °C.
The compound `Oc1c(C(Nc2ccc(Cl)cn2)c2ccccn2)ccc2cccnc12` (stereo not drawn) returned a melting point of 160 to 162 °C.
Consider `Cc1ccc(C2=Cc3cc(C(=O)Nc4ccc(CN(C)C5CCOCC5)cc4)ccc3OC2)cc1`, for which the melting point is 230 to 235 °C.
The compound `CCCCc1nc(Cl)c(CC(=O)O)n1Cc1ccc(NC(=O)c2ccccc2C(=O)O)cc1` had a melting point of 170 to 175 °C.
To `CNc1nc(N)nc2c1nnn2Cc1ccccc1F` belongs 252 to 254 °C; to `CS(=O)(=O)N1CCN([C@@H](CNC(=O)c2ccc(OCc3ccc(C(F)(F)F)cc3)cc2)C(=O)NO)CC1`, 192 °C; to `C#CCn1cccc1-c1nc(-c2ccc(OC)cc2)c(-c2ccc(OC)cc2)s1`, 102 to 104 °C.
Then `CCOC(=O)/C=C/c1cnn(C)c1-c1cccnc1`, with 159 to 160 °C; and `O=C(c1ccc(-c2ccc(C(CC3CCOCC3)c3ccc(S(=O)(=O)C4CC4)cc3)[nH]2)nc1)N1CCOCC1` (stereo not drawn), with 114 to 116 °C.
